Experimental data published in US10500288B2, “Cytotoxic HEXIM1 peptides and uses thereof” (AGENCY FOR SCIENCE, TECHNOLOGY AND RESEARCH, priority 2015, dated 2019).
Square brackets hold non-standard residues; d marks the D form. Ends that are not written are not given here. Peptide text beside a SMILES is read from it.

Assays:
HEK293 cells = assay: Cell viability (Cell-Titer Glo) in HEK293 cells; type: cell-based, human; conditions: HEK293 normal cells; overnight, various concentrations
Experimental: (§1) Human cell lines including HeLa, HEK293, MCF7, MDA-MB-231, CHO-K1, OPM-2, and WI-38 were obtained from American Type Culture Collection. AML2 and AML3 cells were purchased from Deutsche Sammlung von Mikroorganismen und Zellkulturen. HCT116 p53+/+ and p53−/− cells were kindly given by Dr. Bert Vogelstein. Primary human foreskin fibroblasts (HFF) were obtained from Dr. Mark Stinski. […] MDA-MB-231 and OPM-2 cells were cultured in RPMI-1640 (Gibco) containing 10% FBS and 1% penicillin/streptomycin. All cells were routinely maintained in a 37° C. incubator with 5% CO2.
(§2) Cells were plated in clear-bottomed white walled 96-well plates (Corning) and incubated overnight. Cells were treated with indicated peptides in 1% FBS-containing media for overnight or indicated timings at 37° C. Cell viability was measured with CellTiter-Glo reagent (Promega) according to the manufacturer's instructions. For cytotoxicity assay, cells were plated in black walled 96-well plates (Corning) to allow them to adhere overnight. Upon treatment with a pan-caspase inhibitor, z-VAD-Fmk ([…]) (Sigma) and subsequent treatment with LTV-tagged peptides, cytotoxicity induced was determined by CellTox cytotoxicity assay (Promega) 30 minutes after addition of peptides according to the manufacturer's instructions. Luminescence was determined using an Infinite 200 multiplate reader (Tecan).

[1] = system: human foreskin fibroblasts (HFF); assay: Cell viability (Cell-Titer Glo) in human foreskin fibroblasts; type: cell-based; conditions: HFF normal fibroblasts; overnight, various concentrations
Experimental: as §1, §2

HeLa cells = assay: Cell viability (Cell-Titer Glo) in HeLa cells; type: cell-based, human; conditions: overnight, various concentrations
Experimental: as §1, §2

MCF7 cells [2] = assay: CellTox cytotoxicity assay with or without z-VAD-Fmk; type: cell-based; conditions: 30 μM, thirty minutes at 37° C.
Experimental: HCT116 (p53 WT) and HCT116 (p53 KO) cells were cultured on glass slides overnight, treated with vehicle control (0.5% dimethyl sulfoxide (DMSO)) or the indicated FGF peptides (30 μM). Time-lapse DIC imaging highlights dynamic morphological changes in treated HCT116 cells by spinning disk confocal microscopy. […] In contrast, FGF-BR peptide rapidly induces drastic changes to the cell morphology with rupturing of the plasma membrane accompanied with damages to the nuclear membrane and abnormalities to the nucleolus in both cell types. (B) cytotoxicity fluorescence plots of breast cancer cells MCF7 showing the effect of pan-caspase inhibitor z-VAD-Fmk on cells treated with LTV-tagged BR peptide. […] Data representative of at least three independent experiments performed in triplicate were shown with values expressed as mean±SD.
as §2, with “Cells were treated with indicated peptides in 1% FBS-containing media for overnight or indicated timings at 37° C.” left out, “For cytotoxicity assay, cells were plated in black walled 96-well plates (Corning) to allow them to adhere overnight.” left out

HCT116 (p53 WT) cells [3] = assay: Time-lapse DIC live cell imaging, HCT116 (p53 WT); type: cell-based, human; conditions: 30 μM, within minutes
Experimental: (§3) HCT116 (p53 WT) and HCT116 (p53 KO) cells were cultured on glass slides overnight, treated with vehicle control (0.5% dimethyl sulfoxide (DMSO)) or the indicated FGF peptides (30 μM). Time-lapse DIC imaging highlights dynamic morphological changes in treated HCT116 cells by spinning disk confocal microscopy. […] In contrast, FGF-BR peptide rapidly induces drastic changes to the cell morphology with rupturing of the plasma membrane accompanied with damages to the nuclear membrane and abnormalities to the nucleolus in both cell types. (B) cytotoxicity fluorescence plots of breast cancer cells MCF7 showing the effect of pan-caspase inhibitor z-VAD-Fmk on cells treated with LTV-tagged BR peptide. LTV is a breast cancer cell targeting peptide. MCF7 cells were incubated with or without z-VAD-Fmk (for 90 min) and then with indicated LTV-tagged peptides (30 μM) for thirty minutes at 37° C. Cells treated with LTV-X13 peptide (SEQ ID NO: 14) or vehicles, DMSO (0.5%), were used as negative controls. Treated cells were subjected to the cytotoxicity assay as described in Example 9—Materials and Methods. Data representative of at least three independent experiments performed in triplicate were shown with values expressed as mean±SD.
(§4) The mechanism of cell death induced by the HEXIM1 BR peptide was examined. […]

HCT116 (p53 KO) cells [4] = assay: Time-lapse DIC live cell imaging, HCT116 (p53 KO); type: cell-based, human; conditions: 30 μM, within minutes
Experimental: as §3, §4

[5] = system: differentiated adipose cells (from 3T3)
Experimental: (§7) 2.5×10^4 cells/ml of mouse fibroblast cells 3T3 were cultured in gelatin coated plates in Dulbecco's Modified Eagle Medium (DMEM) supplemented with 10% fetal bovine serum (FBS) and 1% penicillin/streptomycin (Gibco) to reach 100% confluent. The cells were then maintained at 100% confluency by supplementing with fresh media in a 37° C. incubator with 5% CO2 for 3 days. For induction, cells were then cultured in DMI Induction Media (which is DMEM supplemented with 10% fetal bovine serum, 1% penicillin/streptomycin, 0.1% 3-isobutyl-1-methylxanthine (sigma), 0.1% insulin (sigma) and 0.1% dexamethasone (sigma)) for 48 hours. The cells were then cultured in Insulin Induction Media (which is DMEM supplemented with 10% fetal bovine serum, 1% penicillin/streptomycin and 0.1% insulin). The insulin induction media was changed every 2 days until the cells were differentiated to adipose cells.
(§8) A D-form BR peptide with the sequence of [sequence] was tagged to a fat tissue targeting peptide of the sequence [sequence] (ATS peptide, SEQ ID NO: 39) to generate the ATS-BRD peptide of the sequence [sequence]([sequence])D (SEQ ID NO: 40). Both undifferentiated 3T3 cells and differentiated adipose cells were treated with the ATS-BRD peptide. ATS-tagged KLAD peptide was used as a positive control.

[6] = system: undifferentiated 3T3 mouse fibroblast cells
Experimental: as §7, §8

HCT116 (p53 KO) cells [7] = assay: Cell viability (Cell-Titer Glo) in HCT116 (p53 KO); type: cell-based, human; conditions: overnight, various concentrations
Experimental: as §1, §2

HCT116 (p53 WT) cells [8] = assay: Cell viability (Cell-Titer Glo) in HCT116 (p53 WT); type: cell-based, human; conditions: overnight, various concentrations
Experimental: as §1, §2

NPM [9] = target: T1, NPM (Homo sapiens, UniProt P06748); assay: Immunofluorescence of NPM sub-cellular localization, HCT116 (p53 KO); type: cell-based; conditions: 30 μM
T1 construct: FGF-tagged BR peptide alters the sub-cellular localization and protein level of endogenous NPM; endogenous in cells; host or cells: HCT116 (p53 WT) and HCT116 (p53 KO)
Experimental: (§5) (A) representative immunofluorescence images showing the sub-cellular localization of α-NPM (bar represents 10 μm). HCT116 (p53 WT) and HCT116 (p53KO) cells were cultured on glass slides overnight, treated with FGF-X13 or FGF-BR (30 μM). Cells treated with FGF-X13 peptide or vehicle, DMSO (0.5%), was used as controls. Treated cells were immunostained with an anti-NPM antibody and analyzed by laser scanning confocal microscopy (Zeiss). Nuclei were visualized by staining with 4′,6-diamidino-2-phenylindole (DAPI).
(§6) For staining with anti-NPM, cultured cells were fixed in 10% neutral buffered formalin (Sigma) for 10 min, and then in methanol for 10 min, washed in PBS and incubated with blocking buffer (PBS containing 0.5% bovine serum albumin) for 1 hour prior to incubation with a mouse anti-NPM antibody (Invitrogen) in blocking buffer for overnight at 4° C. Cells were then incubated with Alexa Fluor 488-conjugated secondary antibody (Jackson Immuno Research Laboratories) for 1 hour, washed three times with PBS and counterstained with 4′,6-diamidino-2-phenylindole (DAPI)-containing mounting solution (Vectashield). Stained cells were examined with a LSM 510 confocal microscope using a 63× objective lens (Zeiss).

NPM [10] = target: T1, NPM; assay: Immunofluorescence of NPM sub-cellular localization, HCT116 (p53 WT); type: cell-based; conditions: 30 μM
Experimental: as §5, §6

MDA-MB-231 cells = assay: Cell viability (Cell-Titer Glo) in MDA-MB-231 breast cancer cells; type: cell-based, human; conditions: overnight, different concentrations
Experimental: as §1, §2

MCF7 cells [11] = assay: Cell viability (Cell-Titer Glo) in MCF7 breast cancer cells; type: cell-based, human; conditions: overnight, different concentrations
Experimental: as §1, §2

T1 sequence (P06748 whole entry): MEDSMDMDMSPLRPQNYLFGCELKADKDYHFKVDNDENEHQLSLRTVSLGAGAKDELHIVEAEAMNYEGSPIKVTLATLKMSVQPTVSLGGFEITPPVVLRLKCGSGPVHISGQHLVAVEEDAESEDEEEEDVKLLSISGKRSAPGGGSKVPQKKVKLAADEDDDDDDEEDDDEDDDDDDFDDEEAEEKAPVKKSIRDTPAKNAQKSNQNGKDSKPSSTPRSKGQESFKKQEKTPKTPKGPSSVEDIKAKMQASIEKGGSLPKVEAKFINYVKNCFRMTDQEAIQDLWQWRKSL

CC(C)C[C@H](NC(=O)[C@H](C)NC(=O)[C@H](CC(C)C)NC(=O)[C@H](CC(C)C)NC(=O)[C@@H](NC(=O)[C@H](C)NC(=O)[C@@H]1CCCN1C(=O)[C@H](CC(C)C)NC(=O)[C@H](CC(C)C)NC(=O)[C@H](C)NC(=O)[C@@H](NC(=O)[C@H](C)NC(=O)[C@H](C)N)C(C)C)C(C)C)C(=O)N[C@@H](CC(C)C)C(=O)N[C@@H](C)C(=O)N1CCC[C@H]1C(=O)N[C@@H](CCC(N)=O)C(=O)N[C@@H](CC(C)C)C(=O)NCC(=O)N[C@@H](CCCCN)C(=O)N[C@@H](CCCCN)C(=O)N[C@@H](CCCCN)C(=O)N[C@@H](Cc1c[nH]cn1)C(=O)N[C@@H](CCCNC(=N)N)C(=O)N[C@@H](CCCNC(=N)N)C(=O)N[C@@H](CCCNC(=N)N)C(=O)N1CCC[C@H]1C(=O)N[C@@H](CO)C(=O)N[C@@H](CCCCN)C(=O)N[C@@H](CCCCN)C(=O)N[C@@H](CCCCN)C(=O)N[C@@H](CCCNC(=N)N)C(=O)N[C@@H](Cc1c[nH]cn1)C(=O)N[C@@H](Cc1c[nH]c2ccccc12)C(=O)O [FGF-BR] (H-AAVALLPAVLLALLAPQLGKKKHRRRPSKKKRHW-OH)
cytotoxicity (cell viability) (HEK293 cells): Comparable cytotoxicity
cytotoxicity (cell viability) [1]: Comparable cytotoxicity
cytotoxicity (cell viability) (HeLa cells): Cytotoxicity was also observed

CC(C)C[C@H](NC(=O)[C@H](CCC(N)=O)NC(=O)CNC(=O)[C@H](CS)NC(=O)CNC(=O)[C@H](Cc1ccc(O)cc1)NC(=O)[C@H](Cc1c[nH]c2ccccc12)NC(=O)[C@@H]1CCCN1C(=O)[C@H](CO)NC(=O)[C@@H](NC(=O)[C@@H](NC(=O)[C@@H](N)CC(C)C)[C@@H](C)O)C(C)C)C(=O)NCC(=O)N[C@@H](CCCCN)C(=O)N[C@@H](CCCCN)C(=O)N[C@@H](CCCCN)C(=O)N[C@@H](Cc1c[nH]cn1)C(=O)N[C@@H](CCCNC(=N)N)C(=O)N[C@@H](CCCNC(=N)N)C(=O)N[C@@H](CCCNC(=N)N)C(=O)N1CCC[C@H]1C(=O)N[C@@H](CO)C(=O)N[C@@H](CCCCN)C(=O)N[C@@H](CCCCN)C(=O)N[C@@H](CCCCN)C(=O)N[C@@H](CCCNC(=N)N)C(=O)N[C@@H](Cc1c[nH]cn1)C(=O)N[C@@H](Cc1c[nH]c2ccccc12)C(=O)O [LTV-BR] (H-LTVSPWYGCGQLGKKKHRRRPSKKKRHW-OH)
cytotoxicity (cell viability) [1]: does not show such non-specific cytotoxicity
cytotoxicity fluorescence (MCF7 cells [2]): significant cytotoxic effect

CC(C)C[C@H](NC(=O)[C@H](CCCCN)NC(=O)CNC(=O)[C@H](CS)NC(=O)CNC(=O)[C@H](Cc1ccc(O)cc1)NC(=O)[C@H](Cc1c[nH]c2ccccc12)NC(=O)[C@@H]1CCCN1C(=O)[C@H](CO)NC(=O)[C@@H](NC(=O)[C@@H](NC(=O)[C@@H](N)CC(C)C)[C@@H](C)O)C(C)C)C(=O)N[C@@H](C)C(=O)N[C@@H](CCCCN)C(=O)N[C@@H](CC(C)C)C(=O)N[C@@H](C)C(=O)N[C@@H](CCCCN)C(=O)N[C@@H](CCCCN)C(=O)N[C@@H](CC(C)C)C(=O)N[C@@H](C)C(=O)N[C@@H](CCCCN)C(=O)N[C@@H](CC(C)C)C(=O)N[C@@H](C)C(=O)N[C@@H](CCCCN)C(=O)O [LTV-KLA, reference compound] (H-LTVSPWYGCGKLAKLAKKLAKLAK-OH)
cytotoxicity (cell viability) [1]: non-specific killing

AAVALLPAVLLALLAP [FGF, cell membrane-translocating peptide derived from Kaposi fibroblast growth factor]
morphological changes (HCT116 (p53 WT) cells [3]): No effects were detected
morphological changes (HCT116 (p53 KO) cells [4]): No effects were detected

CKGGRAKDCGG(QLGKKKHRRRPSKKKRHW)D (CKGGRAKDCGG[dQ][dL]G[dK][dK][dK][dH][dR][dR][dR][dP][dS][dK][dK][dK][dR][dH][dW]; cysteine pairing not given here) [ATS-BRD]
cytotoxic effect (cell viability) [5]: significant cytotoxic effect
cytotoxic effect (cell viability) [6]: no cytotoxic effect

FGF-BR-ILAA: FGF-fused BR peptide with KHRR motif mutated to ILAA (AAVALLPAVLLALLAPQLGKKILAARPSKKKRHW)
cell death / cell viability (HCT116 (p53 KO) cells [7]): still maintained its killing ability
cell death / cell viability (HCT116 (p53 WT) cells [8]): still maintained its killing ability

FGF-BR-RRR12: FGF-fused BR peptide with all six HDM2 ubiquitinating lysine residues mutated to arginine (AAVALLPAVLLALLAPQLGRRRHRRRPSRRRRHW)
cell death / cell viability (HCT116 (p53 KO) cells [7]): stronger cell toxicity when compared to the wild-type FGF-BR peptide
cell death / cell viability (HCT116 (p53 WT) cells [8]): stronger cell toxicity when compared to the wild-type FGF-BR peptide

FGF-X13: negative control peptide, FGF-tagged X13 (AAVALLPAVLLALLAPMPFSTGKRIMLGE) [reference compound]
cell death / cell viability (HCT116 (p53 KO) cells [7]): no effects
sub-cellular localization of NPM (NPM [9]): Normal nucleolar localization of NPM
sub-cellular localization of NPM (NPM [10]): Normal nucleolar localization of NPM
cell death / cell viability (HCT116 (p53 WT) cells [8]): no effects

KLA (KLAKLAKKLAKLAK) [reference compound]
effect on cell viability (MDA-MB-231 cells): non-specific killing

LTV-BR-RRR12: breast cancer targeting peptide LTV fused to BR-RRR12 (LTVSPWYGCGQLGRRRHRRRPSRRRRHW)
effect on cell viability (MCF7 cells [11]): anti-proliferation effects
effect on cell viability (MDA-MB-231 cells): anti-proliferation effects

LTV-X13: LTV-tagged X13 negative control peptide (LTVSPWYGCGMPFSTGKRIMLGE) [reference compound]
effect on cell viability (MCF7 cells [11]): no effects were detected
effect on cell viability (MDA-MB-231 cells): no effects were detected

QLGKKKHRRRPSKKKRHW (listed as Homo sapiens) [BR, untagged HEXIM1 basic region peptide]
effect on cell viability (MCF7 cells [11]): no effect on cell viability
effect on cell viability (MDA-MB-231 cells): remained highly viable

QLGRRRHRRRPSRRRRHW (QLGRRRHRRRPSKKKRHW) [BR-RRR12, BR mutant in which all six HDM2 ubiquitinating lysine residues were mutated to arginine]
effect on cell viability (MCF7 cells [11]): no effect on cell viability
effect on cell viability (MDA-MB-231 cells): remained highly viable

X13: untagged negative control peptide (MPFSTGKRIMLGE) [reference compound]
effect on cell viability (MCF7 cells [11]): no effect on cell viability
effect on cell viability (MDA-MB-231 cells): no effect on cell viability
